Results: patent US10640520B2, “Boronic acid derivatives” (MERCK PATENT GMBH, priority 2014, dated 2020)

Key:
LMP7 = LMP7 (Homo sapiens, UniProt P20618+P28062); assay: Determination of LMP7 activity (fluorescence intensity assay, Suc-LLVY-AMC); assay type: biochemical; conditions: purified human immunoproteasome
Protocol: Determination of LMP7 Activity:
Measurement of LMP7 inhibition is performed in 384 well format based on fluorescence intensity assay.
(§1) Purified human immunoproteasome (0.25 nM) and serial diluted compounds in DMSO (range of concentrations from 30 μM to 15 pM) or controls are incubated for 20 minutes or 120 minutes (long incubation) at 25° C. in assay buffer containing 50 mM Tris pH 7.4, 0.03% SDS, 1 mM EDTA and 1% DMSO. The reaction is initiated by the addition of the fluorogenic peptide substrate, Suc-LLVY-AMC (Bachem 1-1395), at a concentration of 40 μM. After 60 minutes of incubation at 37° C., fluorescence intensity is measured at λex=350 nm and λem=450 nm with a fluorescence reader (Perkin Elmer Envision reader or equivalent).
(§2) Unless indicated otherwise the results are obtained after incubation for 20 minutes.

Beta5 = Beta5 (Homo sapiens, UniProt P20618+P28074); assay: Determination of Beta5 activity (fluorescence intensity assay, Suc-LLVY-AMC); assay type: biochemical; conditions: for IC50: purified human constitutive proteasome
Protocol: Determination of Beta5 Activity:
Measurement of Beta5 inhibition is performed in 384 well format based on fluorescence intensity assay.
as §1, with “constitutive proteasome (1.25” for “immunoproteasome (0.25”, “[…])” for “pM)”
as §2

Structure (SMILES) | IC50 (LMP7; long incubation (120 min)) | Selectivity LMP7 vs Beta5 (Beta5; long incubation (120 min)) | IC50 (Beta5; long incubation (120 min)) | IC50 (LMP7; incubation for 20 minutes) | Selectivity LMP7 vs Beta5 (Beta5; incubation for 20 minutes) | IC50 (Beta5; incubation for 20 minutes)
O=C(CCN1CCCCC1=O)N[C@H](Cc1ccccc1)B(O)O [Compound 3, [(1S)-1-[3-(2-oxo-1-piperidyl)propanoylamino]-2-phenyl-ethyl]boronic acid] |  |  |  | 50 to 500 nM | +++ (30 ≤ Selectivity < 50) | 500 to 5000 nM
Cc1ccc(C[C@H](NC(=O)CCN2CCN(c3ccccc3)C2=O)B(O)O)cc1 [Compound 15, [(1R)-1-[3-(2-oxo-3-phenyl-imidazolidin-1-yl)propanoylamino]-2-(p-tolyl)ethyl]boronic acid] |  |  |  | < 50 nM | ++ (10 ≤ Selectivity < 30) | 50 to 500 nM
Cc1ccc(C[C@H](NC(=O)CCN2C(=O)CCC2(C)C)B(O)O)cc1 [Compound 18, [(1R)-1-[3-(2,2-dimethyl-5-oxo-pyrrolidin-1-yl)propanoylamino]-2-(p-tolyl)ethyl]boronic acid] |  |  |  | 50 to 500 nM | +++ (30 ≤ Selectivity < 50) | 500 to 5000 nM
Cc1ccc(C[C@H](NC(=O)CCN2CCCC2=O)B(O)O)cc1C [Compound 16, [(1R)-2-(3,4-dimethylphenyl)-1-[3-(2-oxopyrrolidin-1-yl)propanoylamino]ethyl]boronic acid] |  |  |  | < 50 nM | +++++ (Selectivity ≥ 70) | 500 to 5000 nM
O=C(CCN1CCCC1=O)N[C@@H](Cc1ccc2ccccc2c1)B(O)O [Compound 6, [(1R)-2-(2-naphthyl)-1-[3-(2-oxopyrrolidin-1-yl)propanoylamino]-ethyl]boronic acid] |  |  |  | < 50 nM | ++ (10 ≤ Selectivity < 30) | 50 to 500 nM
Cc1ccc(C[C@H](NC(=O)CCN2CCC(C)(C)C2=O)B(O)O)cc1 [Compound 17, [(1R)-1-[3-(3,3-dimethyl-2-oxo-pyrrolidin-1-yl)propanoylamino]-2-(p-tolyl)ethyl]boronic acid] |  |  |  | < 50 nM | ++ (10 ≤ Selectivity < 30) | 50 to 500 nM
O=C(CCN1CC(c2ccccc2)CC1=O)N[C@@H](Cc1ccccc1)B(O)O (stereo partly drawn) [Compound 12, [(1R)-1-[3-(2-oxo-4-phenyl-pyrrolidin-1-yl)propanoylamino]-2-phenyl-ethyl]boronic acid] |  |  |  | < 50 nM | ++ (10 ≤ Selectivity < 30) | 50 to 500 nM
O=C(CCN1CCCCC1=O)N[C@@H](Cc1cccc2ccccc12)B(O)O [Compound 11, [(1R)-2-(1-naphthyl)-1-[3-(2-oxo-1-piperidyl)propanoylamino]ethyl]-boronic acid] |  |  |  | 50 to 500 nM | +++ (30 ≤ Selectivity < 50) | 500 to 5000 nM
O=C(CCN1CCCC1=O)N[C@@H](Cc1coc2ccccc12)B(O)O [Compound 19, [(1R)-2-(benzofuran-3-yl)-1-[3-(2-oxopyrrolidin-1-yl)propanoylamino]-ethyl]boronic acid] |  |  |  | < 50 nM | ++++ (50 ≤ Selectivity < 70) | 50 to 500 nM
O=C(CCN1CCN(c2ccccc2)C1=O)N[C@@H](Cc1ccc(F)cc1)B(O)O [Compound 14, [(1R)-2-(4-fluorophenyl)-1-[3-(2-oxo-3-phenyl-imidazolidin-1-yl)propanoylamino]ethyl]boronic acid] |  |  |  | < 50 nM | ++ (10 ≤ Selectivity < 30) | 50 to 500 nM
O=C(CCN1CCCC1=O)N[C@@H](Cc1ccc2c(c1)OCCO2)B(O)O [Compound 8, [(1R)-2-(2,3-dihydro-1,4-benzodioxin-6-yl)-1-[3-(2-oxopyrrolidin-1-yl)propanoylamino]ethyl]boronic acid] |  |  |  | < 50 nM | +++ (30 ≤ Selectivity < 50) | 500 to 5000 nM
O=C(CCN1CCCC1=O)N[C@H](Cc1ccccc1)B(O)O [Compound 2, [(1S)-1-[3-(2-oxopyrrolidin-1-yl)propaqanoylamino]-2-phenyl-ethyl]-boronic acid] |  |  |  | < 50 nM | +++ (30 ≤ Selectivity < 50) | 500 to 5000 nM
O=C(CCN1C(=O)CCCC1=O)N[C@@H](Cc1ccccc1)B(O)O [Compound 5, [(1R)-1-[3-(2,6-dioxo-1-piperidyl)propanoylamino]-2-phenyl-ethyl]-boronic acid] |  |  |  | 500 to 5000 nM | +++ (30 ≤ Selectivity < 50) | > 5000 nM

Second part, the compound after the results:

IC50 (LMP7; long incubation (120 min)) | Selectivity LMP7 vs Beta5 (Beta5; long incubation (120 min)) | IC50 (Beta5; long incubation (120 min)) | IC50 (LMP7; incubation for 20 minutes) | Selectivity LMP7 vs Beta5 (Beta5; incubation for 20 minutes) | IC50 (Beta5; incubation for 20 minutes) | Structure (SMILES)
< 50 nM | +++++ (Selectivity ≥ 70) | > 5000 nM |  |  |  | Cc1cccc2c1OC[C@H]2C[C@H](NC(=O)CCN1CCCCC1=O)B(O)O [Compound 40, [(1R)-2-[(3S)-7-methyl-2,3-dihydrobenzofuran-3-yl]-1-[3-(2-oxo-1-piperidyl)propanoylamino]ethyl]boronic acid]
 |  |  | < 50 nM | ++ (10 ≤ Selectivity < 30) | 500 to 5000 nM | Cc1ccc(C[C@H](NC(=O)CC[C@@H]2NC(=O)NC2=O)B(O)O)cc1 [Compound 23, [(1R)-1-[3-[(4S)-2,5-dioxoimidazolidin-4-yl]propanoylamino]-2-(p-tolyl)ethyl]boronic acid]
 |  |  | < 50 nM | +++++ (Selectivity ≥ 70) | 500 to 5000 nM | O=C(N[C@@H](Cc1coc2ccccc12)B(O)O)C1CCCN1c1ccccc1 (stereo partly drawn) [Compound 37, [(1R)-2-(benzofuran-3-yl)-1-[(1-phenylpyrrolidine-2-carbonyl)amino]ethyl]boronic acid]
< 50 nM | +++++ (Selectivity ≥ 70) | 500 to 5000 nM |  |  |  | Cc1cccc2c(C[C@H](NC(=O)CCN3C(=O)CCC3(C)C)B(O)O)coc12 [Compound 38, [(1R)-1-[3-(2,2-dimethyl-5-oxo-pyrrolidin-1-yl)propanoylamino]-2-(7-methylbenzofuran-3-yl)ethyl]boronic acid]
 |  |  | 50 to 500 nM | ++ (10 ≤ Selectivity < 30) | 500 to 5000 nM | COCc1ccc(C[C@H](NC(=O)CCN2CCCC2=O)B(O)O)cc1 [Compound 20, [(1R)-2-[4-(methoxymethyl)phenyl]-1-[3-(2-oxopyrrolidin-1-yl)propanoylamino]ethyl]boronic acid]
 |  |  | < 50 nM | ++ (10 ≤ Selectivity < 30) | 50 to 500 nM | CN1CCN(CCC(=O)N[C@@H](Cc2coc3ccccc23)B(O)O)C(=O)C1 [Compound 35, [(1R)-2-(benzofuran-3-yl)-1-[3-(4-methyl-2-oxo-piperazin-1-yl)propanoylamino]ethyl]boronic acid]
 |  |  | < 50 nM | +++ (30 ≤ Selectivity < 50) | 50 to 500 nM | O=C(CCN1CCCCC1=O)N[C@@H](Cc1coc2ccccc12)B(O)O [Compound 24, [(1R)-2-(benzofuran-3-yl)-1-[3-(2-oxo-1-piperidyl)propanoylamino]-ethyl]boronic acid]
 |  |  | < 50 nM | ++ (10 ≤ Selectivity < 30) | 50 to 500 nM | O=C(CCN1CCOCC1=O)N[C@@H](Cc1coc2ccccc12)B(O)O [Compound 28, [(1R)-2-(benzofuran-3-yl)-1-[3-(3-oxomorpholin-4-yl)propanoylamino]-ethyl]boronic acid]
 |  |  | 50 to 500 nM | ++ (10 ≤ Selectivity < 30) | 500 to 5000 nM | Cc1ccc(C[C@H](NC(=O)CN2CCCC2=O)B(O)O)cc1 [Compound 21, [(1R)-1-[[2-(2-oxopyrrolidin-1-yl)acetyl]amino]-2-(p-tolyl)ethyl]boronic acid]
< 50 nM | +++++ (Selectivity ≥ 70) | 500 to 5000 nM |  |  |  | O=C(CCN1CCCC1=O)N[C@@H](C[C@@H]1COc2ccccc21)B(O)O [Compound 39, [(1R)-2-[(3S)-2,3-dihydrobenzofuran-3-yl]-1-[3-(2-oxopyrrolidin-1-yl)propanoylamino]ethyl]boronic acid]
 |  |  | < 50 nM | ++ (10 ≤ Selectivity < 30) | 50 to 500 nM | O=C(CN1C(=O)CSC1=O)N[C@@H](Cc1coc2ccccc12)B(O)O [Compound 33, [(1R)-2-(benzofuran-3-yl)-1-[[2-(2,4-dioxothiazolidin-3-yl)acetyl]-amino]ethyl]boronic acid]
 |  |  | < 50 nM | +++ (30 ≤ Selectivity < 50) | 50 to 500 nM | O=C(CCN1CCCOC1=O)N[C@@H](Cc1coc2ccccc12)B(O)O [Compound 30, [(1R)-2-(benzofuran-3-yl)-1-[3-(2-oxo-1,3-oxazinan-3-yl)propanoylamino]ethyl]boronic acid]
 |  |  | < 50 nM | +++ (30 ≤ Selectivity < 50) | 500 to 5000 nM | Cc1ccc(C[C@H](NC(=O)CCN2CCCCS2(=O)=O)B(O)O)c(C)c1 [Compound 32, [(1R)-2-(2,4-dimethylphenyl)-1-[3-(1,1-dioxothiazinan-2-yl)propanoylamino]ethyl]boronic acid]
